Test system: immortalized sebocytes (SZ95) and clones
Experiment: Growth behavior / cell proliferation test (4-methylumbelliferyl heptanoate fluorescence assay)
Format: cell-based, human
Conditions: for proliferation response of clones stimulated by retinoids: other clones, corresponds to response of normal human epidermal keratinocytes; for proliferation response of clones stimulated by retinoids / proliferation response of clones inhibited by retinoids: 10^-7 M retinoid, 9 days, FIG. 9; for proliferation response of clones inhibited by retinoids: some clones, order 13-cis-retinoic acid>all-trans-retinoic acid>>Acitretin
Protocol: _Cells were seeded in 96 well culture plates at densities of 0.5 to 4×10^3 cell/well. Cell proliferation was assessed by the 4-methylumbelliferylheptanoatefluorescence assay and measured automatically (Zouboulis et al. Melanoma. Res. 1991; 1:91-95).
To this extent, on the day of evaluation, the culture medium was removed, the cells were washed twice with PBS and […] 100 μg solution of 4-methylumbelliferyl heptanoate (Sigma, Deisenhofen, Germany) in PBS were added to each well. The plates were then incubated at 37° C. for 30 minutes and released fluorescence was measured by a suitable fluorescence measuring device (Titertec-Fluoroscan II; Flow, Meckenheim, Germany). Fluorescence units were obtained at 355 nm excitation and 460 nm emission filters.
_5α-dihydrctestosterone (5α-DHT; Sigma) was dissolved in DMSO and subsequently in serum-free, phenol-free modified DMEM/Ham's F12-Medium (1:1) (Gibco-BRL) with 2 mM n-Acetyl-L-alanyl-L-glutamine which was supplemented with 5 ng/ml EGF, 50 μg/ml bovine pituary extract, 1 mg/ml fatty acid-free bovine serum albumine (Boehringer Mannheim) and 50 μg/ml gentamycine to obtain a final concentration of 10^−6 M 5α-DHT and 0.1% DMSO. 0.1% DMSO alone served as a control. The cells (0.5 to 2×10^3/well) were treated with 5α-DHT for 18 days.
For the treatment with retinoids, all-trans-retinoic acid, 13-cis-retinoic acid and acitretin were dissolved in DMSO and subsequently placed in serum-free modified DME-Medium/Ham's F12-Medium (1:1) with […] N-Acetyl-L-alanyl-L-glutamine which was supplemented with 5 ng/ml EGE, 50 μg/ml bovine pituary extract, 1 mg/ml fatty acid-free bovine serum albumine and 50·μg/ml gentamycine to obtain a final concentration of 10^−7 M retinoid and 0,1% DMSO. 0,1% DMSO alone served as a control. Retinoids were handled under dim amber light. The cells (0.5 to 1×10^3/well) were treated with the retinoids for 9 days.

C[C@]12CCC(=O)C[C@@H]1CC[C@@H]1[C@@H]2CC[C@]2(C)[C@@H](O)CC[C@@H]12 [5α-DHT, 5α-dihydrctestosterone]
effect on proliferation of the cells (10^-6 M 5α-DHT, serum-free medium, after the 8th day, vs control (p<0.05; p<0.01), FIG. 8): increased the proliferation of the cells significantly
population doubling time (exemplary sebocyte clone, seeding 2.000/well, serum-free medium supplemented with 10^-6 M 5α-DHT, 18 days, control 136 hours): 53.7 h

CC1=C(/C=C/C(C)=C/C=C/C(C)=C/C(=O)O)C(C)(C)CCC1 [all-trans-retinoic acid]
proliferation response of clones stimulated by retinoids (serum-free medium): stimulated in proliferation
proliferation response of clones inhibited by retinoids (serum-free medium): inhibition of proliferation

COc1cc(C)c(/C=C/C(C)=C/C=C/C(C)=C/C(=O)O)c(C)c1C [Acitretin, acitretin]
proliferation response of clones inhibited by retinoids (serum-free medium): inhibition of proliferation

CC1=C(/C=C/C(C)=C/C=C/C(C)=C\C(=O)O)C(C)(C)CCC1 [13-cis-retinoic acid]
proliferation response of clones stimulated by retinoids (serum-free medium): stimulated in proliferation
proliferation response of clones inhibited by retinoids (serum-free medium): inhibition of proliferation

Source: patent US20160237406A1, “SEBOCYTES, SEBOCYTE CELL LINES AND APPLICATIONS THEREOF” (priority 2001, published 2016)
